Experimental data: patent publication US5661148A, “Pyrrolo[2,3-d]pyrimidine derivatives, process for producing the same and pharmaceutical preparation comprising the same as active ingredient” (Teijin Limited, priority 1989, dated 1997)

Legend:
hypoxemia model animals [1] = experiment: Effect on partial pressure value of gases in arterial blood, injection system, Method B (acetic acid induced respiratory insufficiency); assay type: in vivo, rat (Male Wister strain); details: continuous i.v. 0.1 mg/kg/min., 10 min.; for Activity for Decreasing PaCO2: increment PaCO2: PaCO2 after minus before administration; for Activity for Increasing PaO2: increment PaO2: PaO2 after minus before administration
Description: Effect on Partial Pressure Value of Gases in Arterial Blood (Injection system) <Method B> Male Wister strain rats (body about 300 g) were anesthetized with halothane inhalant, and then 2.0% acetic acid was […] injected at 0.6 ml/kg to induce a respiratory insufficiency. The animals were intra-peritoneally anesthetized with urethane-α-chloralose, and a cannula was inserted into the femoral artery. After the hypoxemic state (PaO2 : 60-70 mmHg) was observed a compound in accordance with the present invention (test substance) was continuously intravenously injected into these hypoxemia model animals (0.1 mg/kg/min., 10 min.), and then a partial pressure value of gases (PaO2, PaCO2) in arterial blood was immediately determined.

hypoxemia state rats = experiment: Effect on partial pressure value of gases in arterial blood, oral administration system, Method A (acetic acid induced hypoxemia, about 60 min); assay type: in vivo, rat (Male Wistar strain); details: 60 min. after administration
Description: Effect on Partial Pressure Value of Gases in Arterial Blood (Oral Administration System) Method A Male Wistar strain rats (body weight about 250 g) fasted overnight were anesthetized with halothane inhalant, and a cannula then inserted into the femoral artery. After the animals recovered from the anesthesia, they were again anesthetized with halothane inhalant, and then 2.0% acetic acid was […] injected at 0.8 ml/kg to induce a hypoxemia state. After the hypoxemic state (PaO2 :60-80 mmHg) was observed over about 60 min., a compound in accordance with the present invention (test substance, 10 or 30 mg/kg) was orally administered to the animals. Then 60 min. after the administration, the partial pressure value of gases (PaO2, PaCO2) in arterial blood was determined.

hypoxemia model animals [2] = experiment: Effect on partial pressure value of gases in arterial blood, injection system, Method A (carbon powder induced hypoxemia); assay type: in vivo, rat (Male Wister strain); details: continuous i.v. 0.1 mg/kg/min., 10 min.; for Activity for Decreasing PaCO2: increment PaCO2: PaCO2 after minus before administration; for Activity for Increasing PaO2: increment PaO2: PaO2 after minus before administration
Description: Effect on Partial Pressure Value of Gases in Arterial Blood (Injection system)
Male Wister strain rats (body weight about 300 g) were anesthetized intra-peritoneally with urethane, and a cannula was inserted into the respiratory tract and the femoral artery, respectively. A suspension (30-100 μm, 10 mg/ml) of carbon powder in a corn oil was intratrachealy injected to induce a hypoxemia state (PaO2; 50-60 mmHg). A compound in accordance with the present invention was continuously intravenously injected into these hypoxemia model animals (0.1 mg/kg/min., 10 min.), and then a partial pressure value of gases (PaO2, PaCO2) in arterial blood was immediately determined.

hypoxemia animals = experiment: Effect on partial pressure value of gases in arterial blood, oral administration system, Method B (3 days after acetic acid); assay type: in vivo, rat (Male wistar strain); details: 60 min. after administration
Description: Effect on Partial Pressure Value of Gases in Arterial Blood (Oral Administration System)
Male wistar strain rats (body weight about 350 g) were anesthetized with halothane inhalant, and then 2.0% acetic acid were intratrachealy injected at 0.6 ml/kg body to induce a hypoxemia state. In 3 days after injection with 2.0% acetic acid, rats fasted overnight were anesthetized with halothane inhalant, and a cannula inserted into the femoral artery. After these hypoxemia animals (PaO2 : 60-80 mmHg) were recovered from the anesthesia, a compound in accordance with the present invention (test substance, 10 or 30 mg/kg) was orally administered to the animals. At 60 min. after the administration, the partial pressure value of gases (PaO2, PaCO2) in arterial blood was determined.

Structure (SMILES) | Activity for Decreasing PaCO2: increment PaCO2 (hypoxemia model animals [1]) | Activity for Increasing PaO2: increment PaO2 (hypoxemia model animals [1]) | other results
C=CCNc1nc(NC(C)c2ccccc2)c2ccn(C)c2n1.Cl (racemic) [Compound 156, (±)-2-allylamino-7-methyl-4-(1-phenylethylamino)-7H-pyrrolo[2,3-d]pyrimidine hydrochloride] | -9.1 mmHg |  | Activity for Decreasing PaCO2: increment PaCO2 (hypoxemia state rats; 30 mg/kg): -8.1 mmHg; Activity for Increasing PaO2: increment PaO2 (hypoxemia state rats; 30 mg/kg): +7.8 mmHg
C=CCNc1nc(N2CCC(OC(C)=O)CC2)c2ccn(C)c2n1 [Compound 119] |  |  | Activity for Decreasing PaCO2: increment PaCO2 (hypoxemia model animals [2]): -2.6 mmHg; Activity for Increasing PaO2: increment PaO2 (hypoxemia model animals [2]): +7.1 mmHg
C=CCNc1nc(N2CCOCC2)c2ccn(C)c2n1 [Compound 124] | -4.0 mmHg | +5.7 mmHg | Activity for Decreasing PaCO2: increment PaCO2 (hypoxemia animals; 30 mg/kg): -2.5 mmHg; Activity for Increasing PaO2: increment PaO2 (hypoxemia animals; 30 mg/kg): +8.0 mmHg
C=CCNc1nc(N2CCN(C(c3ccc(F)cc3)c3ccc(F)cc3)CC2)c2ccn(C)c2n1 [Compound 133] |  |  | Activity for Decreasing PaCO2: increment PaCO2 (hypoxemia model animals [2]): -0.6 mmHg; Activity for Increasing PaO2: increment PaO2 (hypoxemia model animals [2]): +6.9 mmHg
C=CCNc1nc(N2CCN(C(c3ccc(F)cc3)c3ccc(F)cc3)CC2)c2ccn(CC=C)c2n1 [Compound 143] |  |  | Activity for Decreasing PaCO2: increment PaCO2 (hypoxemia model animals [2]): +1.1 mmHg; Activity for Increasing PaO2: increment PaO2 (hypoxemia model animals [2]): +5.0 mmHg
C=CCNc1nc(N(C)C)c2ccn(C)c2n1 [Compound 165] | +1.1 mmHg | +7.9 mmHg | Activity for Decreasing PaCO2: increment PaCO2 (hypoxemia state rats; 30 mg/kg): -3.4 mmHg; Activity for Increasing PaO2: increment PaO2 (hypoxemia state rats; 30 mg/kg): +8.5 mmHg
C=CCNc1nc(N(C)CCc2ccccc2)c2ccn(C)c2n1 [Compound 167] | -6.6 mmHg |  | 
C=CCNc1nc(NCc2ccco2)c2ccn(C)c2n1 [Compound 172] | -2.8 mmHg | +12.3 mmHg | 
C=CCNc1nc(NCCCc2ccco2)c2ccn(C)c2n1 [Compound 173] | -13.1 mmHg | +12.0 mmHg | Activity for Decreasing PaCO2: increment PaCO2 (hypoxemia state rats; 10 mg/kg): -3.7 mmHg; Activity for Increasing PaO2: increment PaO2 (hypoxemia state rats; 10 mg/kg): +4.2 mmHg
C=CCNc1nc(NCc2cccs2)c2ccn(C)c2n1 [Compound 174] | -2.9 mmHg | +5.8 mmHg | 
C=CCNc1nc(NCCc2ccc(OC)cc2)c2ccn(C)c2n1 [Compound 175] | -13.1 mmHg | +15.2 mmHg | 
C=CCNc1nc(NC(C)C)c2ccn(C)c2n1 [Compound 176] | -14.8 mmHg | +22.2 mmHg | Activity for Decreasing PaCO2: increment PaCO2 (hypoxemia animals; 10 mg/kg): -5.4 mmHg; Activity for Increasing PaO2: increment PaO2 (hypoxemia animals; 10 mg/kg): +11.6 mmHg
C=CCNc1nc(NC(C)(C)C)c2ccn(C)c2n1 [Compound 178] | -16.4 mmHg | +16.4 mmHg | Activity for Decreasing PaCO2: increment PaCO2 (hypoxemia animals; 10 mg/kg): -6.6 mmHg; Activity for Increasing PaO2: increment PaO2 (hypoxemia animals; 10 mg/kg): +17.0 mmHg
C=CCNc1nc(NCC2CCCO2)c2ccn(C)c2n1 (stereo not drawn) [Compound 179] | +2.4 mmHg | +8.5 mmHg | 
C=CCNc1nc(N2CCC(OC)CC2)c2ccn(C)c2n1 [Compound 180] | -0.5 mmHg | +6.5 mmHg | 
C=CCNc1nc(N(CCOCC)CCOCC)c2ccn(C)c2n1 [Compound 181] | +1.2 mmHg | +6.4 mmHg | 
C=CCNc1nc(N2CCCCC2C)c2ccn(C)c2n1 (stereo not drawn) [Compound 182] |  |  | Activity for Decreasing PaCO2: increment PaCO2 (hypoxemia animals; 30 mg/kg): -2.2 mmHg; Activity for Increasing PaO2: increment PaO2 (hypoxemia animals; 30 mg/kg): +3.3 mmHg
C=CCNc1nc(N2C(C)CCCC2C)c2ccn(C)c2n1 (stereo not drawn) [Compound 183] | -4.6 mmHg | +10.7 mmHg | 
C=CCNc1nc(NC(COC)COC)c2ccn(C)c2n1 [Compound 184] | -0.7 mmHg | +7.8 mmHg | 
C=CCNc1nc(N[C@H]2CC[C@@H](OC)CC2)c2ccn(C)c2n1 [Compound 185] | -6.0 mmHg | +11.7 mmHg | 
C=CCNc1nc(N[C@H]2CC[C@H](OC)CC2)c2ccn(C)c2n1 [Compound 186] | -15.4 mmHg | +12.3 mmHg | Activity for Decreasing PaCO2: increment PaCO2 (hypoxemia animals; 10 mg/kg): -5.3 mmHg; Activity for Increasing PaO2: increment PaO2 (hypoxemia animals; 10 mg/kg): +14.9 mmHg
C=CCNc1nc(N[C@H]2CC[C@H](OCCOCC)CC2)c2ccn(C)c2n1 [Compound 187] | -14.7 mmHg | +13.7 mmHg | Activity for Decreasing PaCO2: increment PaCO2 (hypoxemia animals; 10 mg/kg): +6.9 mmHg; Activity for Increasing PaO2: increment PaO2 (hypoxemia animals; 10 mg/kg): +16.0 mmHg
C=CCNc1nc(N(C)[C@H]2CC[C@H](OC)CC2)c2ccn(C)c2n1 [Compound 189] | -6.0 mmHg | +7.3 mmHg | 
